Measured values published in patent publication US11357786B2, “Synthetic disugar hydrocarbons as natural analogs to control microbial behaviors” (Syracuse University, priority 2014, dated 2022).
Entries after “also recorded” stand apart in the source; their conditions may differ.

Columns and labels:
[1] = test system: nonswarming P. aeruginosa mutant rhlA; assay: Swarming motility of nonswarming rhlA mutant on soft agar (reactivation / agonist assay); assay type: cell-based, Pseudomonas aeruginosa; details: for Reactivation of swarming motility of rhlA mutant: concentration not given; for Swarming reactivation of rhlA mutant: 110 μM in soft agar; for Concentration that suppresses reactivation of rhlA swarming by DβC: co-administered with 40 μM DβC
Method in brief: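 rhlA transposon mutant of PAO1 (3 μl, OD600 0.4–0.6) inoculated on M8 soft agar (0.2% glucose, 0.5% casamino acids, 1 mM MgSO4, 0.5% agar) with test compound to find swarming agonists. Incubated 12 h at 37 °C plus 12 h at room temperature; swarm area measured by weighing paper cut-outs of imaged swarms.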

[2] = test system: PAO1 biofilm; assay: Crystal violet based static biofilm inhibition assay, DSHs in LB media (Examples 2 and 4); assay type: cell-based, Pseudomonas aeruginosa; details: for Anti-biofilm activity (biofilm inhibition): concentration not given; for Inhibition of PAO1 biofilm in presence of pili peptide PAO(128-144)ox: agent 85 μM + pili peptide 85 μM; for Inhibition of PAO1 biofilm in presence of scrambled pili peptide: agent 85 μM + scrambled pili peptide 85 μM
Method in brief: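 PAO1 subculture (OD600 ~0.1) was grown statically in LB at 37° C for 24 h with or without DSHs (screened at 160 μM). Surface-attached biofilm was then stained with 0.1% crystal violet, solubilised in 30% AcOH and read at 600 nm. Values are the mean of 4 wells.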

[3] = 85 μM in soft agar (0.5%), 24 h

CCCCCCCCCCCCOS(=O)(=O)[O-].[Na+] [SDS, sodium dodecyl sulfate, reference compound]
Reactivation of swarming motility of rhlA mutant ([1]; sulfate): do not reactivate the swarming motility; also recorded: did not incur any bioactivity; also recorded: did not promote or reactivate
Anti-biofilm activity (biofilm inhibition) [2]: did not incur any bioactivity

CC(C)CCCC(C)CCCC(C)CCO[C@@H]1O[C@H](CO)[C@@H](O[C@H]2O[C@H](CO)[C@@H](O)[C@H](O)[C@H]2O)[C@H](O)[C@H]1O (stereo partly drawn) [SFβM (14), saturated farnesyl-β-maltoside]
Swarming area of rhlA ([1]; 10 μM, 24 h): ~14 cm2
Swarming motility of rhlA mutant [1, 3]: no apparent effect on rhlA
Swarming reactivation of rhlA mutant ([1]; 24 h): incapable of reactivating the swarming
Concentration of activity reversal for swarming promotion of rhlA mutant (transition concentration) ([1]; soft agar): ~10 µM
Concentration of activity reversal for swarming promotion of rhlA mutant (transition concentration) ([1]; soft agar, listed as 14): 10 µM
IC50 ([2]; Example 2, FIG. 18): ~97.2 µM
IC50 ([2]; Example 4, FIG. 30): ~102 µM
Anti-biofilm activity (biofilm inhibition) [2]: potent PAO1 biofilm inhibitors

CC(C)CCCC(C)CCCC(C)CCO[C@H]1O[C@H](CO)[C@@H](O[C@@H]2O[C@H](CO)[C@@H](O)[C@H](O)[C@H]2O)[C@H](O)[C@H]1O (stereo partly drawn) [SFαC (13), saturated farnesyl-α-cellobioside]
Swarming motility of rhlA mutant [1, 3]: no apparent effect on rhlA
Swarming reactivation of rhlA mutant ([1]; 24 h): incapable of reactivating the swarming
Inhibition of PAO1 biofilm ([2]; 85 μM, agent alone): about 70%
IC50 ([2]; Example 2, FIG. 18): ~32.3 µM
IC50 ([2]; Example 4, FIG. 30): ~32 µM
Inhibition of PAO1 biofilm in presence of pili peptide PAO(128-144)ox [2]: 30%
Inhibition of PAO1 biofilm in presence of pili peptide PAO(128-144)ox ([2]; listed as 13: SFαC): exhibited no inhibition of PA biofilm
Inhibition of PAO1 biofilm in presence of scrambled pili peptide [2]: 65%
Inhibition of PAO1 biofilm in presence of scrambled pili peptide ([2]; listed as 13: SFαC): did not compromise the efficacy of the agent
Anti-biofilm activity (biofilm inhibition) [2]: potent PAO1 biofilm inhibitors

CCCCCCCCCCCCOCCOCCOCCOCCO [C12EG4OH, tetra (ethylene glycol) monododecyl ether, reference compound]
Reactivation of swarming motility of rhlA mutant [1]: do not reactivate the swarming motility; also recorded: did not promote or reactivate
Reactivation of swarming motility of rhlA mutant ([1]; listed as C12EG5OH): did not incur any bioactivity
Anti-biofilm activity (biofilm inhibition) [2]: did not incur any bioactivity

CC(C)CCCC(C)CCCC(C)CCO[C@@H]1O[C@H](CO)[C@@H](O[C@@H]2O[C@H](CO)[C@@H](O)[C@H](O)[C@H]2O)[C@H](O)[C@H]1O (stereo partly drawn) [SFβC (12), saturated famesyl-β-cellobioside]
Swarming motility of rhlA mutant ([1]; 20 μM): did not activate the swarming motility
Swarming motility of rhlA mutant [1, 3]: no apparent effect on rhlA
Swarming reactivation of rhlA mutant ([1]; 24 h, listed as 12: SFbC): does not reactivate the swarming of rhlA mutant
Swarming reactivation of rhlA mutant ([1]; 24 h, listed as 12: SFβC): incapable of reactivating the swarming
Concentration that suppresses reactivation of rhlA swarming by DβC [1]: 20 µM
Concentration that suppresses reactivation of rhlA swarming by DβC ([1]; listed as SFβC): ≤ 20 µM
Concentration of activity reversal for swarming promotion of rhlA mutant (transition concentration) ([1]; soft agar): ~8 µM
Concentration range in which swarming of rhlA is reactivated ([1]; soft agar, 24 h): 5-12 W
Concentration of activity reversal for swarming promotion of rhlA mutant (transition concentration) ([1]; soft agar, listed as 12): 8 µM
Concentration up to which there is no interference with swarming reactivation of rhlA by DβC ([1]; with 40 μM DβC): up to 10 μM
IC50 ([2]; Example 2, FIG. 18): 4.9 µM
IC50 ([2]; Example 4, FIG. 30): ~9.9 µM
Anti-biofilm activity (biofilm inhibition) [2]: potent PAO1 biofilm inhibitors
